The results in this text go back to patent publication US12502362B2, “Inhibitors of nucleotidyltransferase superfamily enzymes as antibiotics” (priority 2017, dated 2025).

SMILES strings stand for the structures. ≈ marks a conversion by molar mass, not a printed value. Read-outs that look alike come from different tables or passages of the source.

For assay [1], the system named is Staphylococcus epidermidis. The class given is cell-based. The protocol: (§1) It was also tested whether compounds #63 and #285 can inhibit other coagulase-negative Staphylococcus (CNS) including S. epidermidis, S. hominis, etc. […].
The next assay deals with Staphylococcus hominis. The class given is cell-based. How it is done:
as §1

Assay [2] deals with S. aureus ATCC strains and MRSA. The class given is cell-based, Staphylococcus aureus.
A further assay concerns S. aureus (ATCC 29213). The assay is described as follows: MIC80 on S. aureus. The class given is cell-based, Staphylococcus aureus. As to conditions: S. aureus ATCC 29213 (MSSA); ≥80% growth inhibition. The protocol: (§2) To further characterize the compounds, the minimal inhibitory concentration (MIC80) were determined for selected compounds. MIC80 is defined as the compound concentration at which ≥80% bacterial growth is inhibited compare to untreated controls. Meanwhile, for the selected compounds, cytotoxicity assays (CC50) were performed on a HepG2-derived hepatoblastoma cell line (HEPDES19). […] For CC50 evaluation, soluble tetrazolium dye (MTS) was used to measure mitochondrial toxicity in a human hepatoblastoma cell line (18). The bacteria (E. coli, S. saprophyticus and A. baumannii) used in MIC80 measurements were the same as that in the primary screening, but for Staphylococcus, S. aureus is used primarily because it is a common pathogen in Staphylococcaeae family, while S. saprophyticus is part of the normal human flora.

The test system of the next assay is E. coli (ATCC 35218). The assay is described as follows: microbe, parasite or virus in culture. As to conditions: E. coli ATCC 35218. The assay is classed as cell-based. How it is done:
as §2

In assay [3] the test system is Coagulase negative Staphylococcus. The experiment in a line: Antibiotic susceptibility of coagulase negative Staphylococcus strains. The assay is classed as cell-based.
Setting [4] is: Se1 (Staphylococcus epidermidis).
Setting [5] is: Se2 (Staphylococcus epidermidis).
[6] abbreviates: Se3 (Staphylococcus epidermidis).
Where [7] appears, read: Se4 (Staphylococcus epidermidis).
The mark [8] stands for this setting: Se5 (Staphylococcus epidermidis).
[9] abbreviates: CNS1 (Coagulase negative Staphylococcus).
Where [10] appears, read: CNS2 (Coagulase negative Staphylococcus).

For `CCC[C@@H]1C[C@@H](C(=O)N[C@@H]([C@H]2O[C@H](SC)[C@H](O)[C@@H](O)[C@H]2O)[C@H](C)Cl)N(C)C1` [CLI, clindamycin], the Antibiotic susceptibility entry is “R” in assay [1] (setting [4]); “R” in assay [1] (setting [5]); “R” in assay [1] (setting [6]); “R” in assay [1] (setting [7]); “R” in assay [1] (setting [8]); “S” with Staphylococcus hominis (Sh1 (Staphylococcus hominis)). In addition, the Antibiotic susceptibility result in the assay with Staphylococcus hominis (Sh2 (Staphylococcus hominis)) was “S”; in the assay with Staphylococcus hominis (Sh3 (Staphylococcus hominis)) it was “R”; in assay [2] (S. aureus ATCC 25923), “S”; in assay [2] (S. aureus ATCC 29213) it was “S”; in assay [2] (S. aureus ATCC BAA 976), “S”; in assay [2] (S. aureus ATCC BAA 977), “R”. The Antibiotic susceptibility entry in assay [2] (S. aureus ATCC BAA 1026) is listed as “R”; in assay [2] (Sa1 (MRSA)), “R”; in assay [2] (Sa2 (MRSA)) it was “S”; in assay [2] (Sa3 (MRSA)) it was “R”; in assay [2] (Sa5 (MRSA)) it was “R”; in assay [2] (Sa6 (MRSA)), “R”. The Antibiotic susceptibility result in assay [2] (Sa7 (MRSA)) is “S”; in assay [2] (Sa8 (MRSA)), “S”; in assay [2] (Sa9 (MRSA)), “R”; in assay [2] (Sa10 (MRSA)), “R”; in assay [2] (Sa11 (MRSA)), “R”; in assay [2] (Sa12 (MRSA)), “R”. Further, the Antibiotic susceptibility result was “R” in assay [2] (Sa14 (MRSA)); “R” in assay [2] (Sa15 (MRSA)); “R” in assay [2] (Sa16 (MRSA)); “S” in assay [2] (Sa17 (MRSA)); “S” in assay [2] (Sa18 (MRSA)); “R” in assay [2] (Sa19 (MRSA)). Besides, the Antibiotic susceptibility entry in assay [2] (Sa20 (MRSA)), in assay [2] (Sa21 (MRSA)), in assay [2] (Sa22 (MRSA)) and in assay [2] (Sa23 (MRSA)) was “S” each time.

For the molecule `Cc1cc(O)c(=O)c(O)cc1-c1cccc2ccccc12` [Compound 146], the “MIC80 S. aureus” value against S. aureus (ATCC 29213) is 19.8 µM (≈ 5.51 µg/mL).

Take `O=C(O)c1ccccc(=O)c1O` [Compound 338]: in the assay on S. aureus (ATCC 29213), the “MIC80 S. aureus” value came out at 19.8 µM (≈ 3.29 µg/mL).

With `COc1ccc(Cl)cc1C(=O)Sc1cccccc1=O` [Compound 681], in the assay on S. aureus (ATCC 29213), the “MIC80 S. aureus” value was 19.8 µM (≈ 6.07 µg/mL). For the same molecule, the “MIC80 E. coli” value in the assay with E. coli (ATCC 35218) is 19.8 µM (≈ 6.07 µg/mL).

As for `O=c1cccccc1Sc1cccccc1=O` [Compound 684], the “MIC80 S. aureus” value against S. aureus (ATCC 29213) was 44.4 µM (≈ 10.8 µg/mL).

As for `O=c1cccccc1SSc1cccccc1=O` [Compound 685], in the assay on S. aureus (ATCC 29213), the “MIC80 S. aureus” value was greater than 100 µM. Also, the “MIC80 E. coli” value in the assay on E. coli (ATCC 35218) came out at 19.8 µM (≈ 5.43 µg/mL).

On to `CCCCCCCCCC(=O)N[C@@H](Cc1c[nH]c2ccccc12)C(=O)N[C@H](CC(N)=O)C(=O)N[C@@H](CC(=O)O)C(=O)N[C@@H]1C(=O)NCC(=O)N[C@@H](CCCN)C(=O)N[C@@H](CC(=O)O)C(=O)N[C@H](C)C(=O)N[C@@H](CC(=O)O)C(=O)NCC(=O)N[C@H](CO)C(=O)N[C@@H]([C@H](C)CC(=O)O)C(=O)N[C@@H](CC(=O)c2ccccc2N)C(=O)O[C@@H]1C` [DAP, daptomycin], for which the Antibiotic susceptibility result in assay [3] (setting [9]), in assay [3] (setting [10]), in assay [1] (setting [4]), in assay [1] (setting [5]), in assay [1] (setting [6]) and in assay [1] (setting [7]) was “S” throughout. The Antibiotic susceptibility entry (in assay [1] (setting [8]); with Staphylococcus hominis (Sh1 (Staphylococcus hominis)); in the assay with Staphylococcus hominis (Sh2 (Staphylococcus hominis)); with Staphylococcus hominis (Sh3 (Staphylococcus hominis)); in assay [2] (S. aureus ATCC 25923); in assay [2] (S. aureus ATCC 29213)) was “S” each time. The Antibiotic susceptibility result in assay [2] (S. aureus ATCC BAA 976), in assay [2] (S. aureus ATCC BAA 977), in assay [2] (S. aureus ATCC BAA 1026), in assay [2] (Sa1 (MRSA)), in assay [2] (Sa2 (MRSA)) and in assay [2] (Sa3 (MRSA)) was “S” each time. Also, the Antibiotic susceptibility entry in assay [2] (Sa6 (MRSA)), in assay [2] (Sa7 (MRSA)), in assay [2] (Sa9 (MRSA)), in assay [2] (Sa11 (MRSA)), in assay [2] (Sa12 (MRSA)) and in assay [2] (Sa15 (MRSA)) was “S” throughout. In addition, the Antibiotic susceptibility entry in assay [2] (Sa16 (MRSA)), in assay [2] (Sa17 (MRSA)), in assay [2] (Sa18 (MRSA)), in assay [2] (Sa19 (MRSA)), in assay [2] (Sa20 (MRSA)) and in assay [2] (Sa21 (MRSA)) was “S” throughout. Also, the Antibiotic susceptibility result in assay [2] (Sa22 (MRSA)) and in assay [2] (Sa23 (MRSA)) was “S” throughout.

Regarding `C[C@H]1c2cccc(O)c2C(=O)C2=C(O)[C@]3(O)C(=O)C(C(N)=O)=C(O)[C@@H](N(C)C)[C@@H]3[C@@H](O)[C@@H]21` [DOX, doxycycline], the Antibiotic susceptibility entry in assay [3] (setting [9]), in assay [3] (setting [10]), in assay [1] (setting [4]), in assay [1] (setting [5]), in assay [1] (setting [6]) and in assay [1] (setting [7]) was “S” each time. The Antibiotic susceptibility entry in assay [1] (setting [8]) was “S”; in the assay on Staphylococcus hominis (Sh1 (Staphylococcus hominis)), “S”; in the assay on Staphylococcus hominis (Sh2 (Staphylococcus hominis)), “R”; with Staphylococcus hominis (Sh3 (Staphylococcus hominis)) it was “S”; in assay [2] (S. aureus ATCC 25923), “S”; in assay [2] (S. aureus ATCC 29213) it was “S”. The Antibiotic susceptibility result in assay [2] (S. aureus ATCC BAA 976), in assay [2] (S. aureus ATCC BAA 977), in assay [2] (S. aureus ATCC BAA 1026), in assay [2] (Sa1 (MRSA)), in assay [2] (Sa2 (MRSA)) and in assay [2] (Sa3 (MRSA)) was “S” throughout. In addition, the Antibiotic susceptibility entry in assay [2] (Sa6 (MRSA)), in assay [2] (Sa7 (MRSA)), in assay [2] (Sa9 (MRSA)), in assay [2] (Sa11 (MRSA)), in assay [2] (Sa12 (MRSA)) and in assay [2] (Sa14 (MRSA)) was “S” throughout. The Antibiotic susceptibility result in assay [2] (Sa15 (MRSA)), in assay [2] (Sa16 (MRSA)), in assay [2] (Sa17 (MRSA)), in assay [2] (Sa18 (MRSA)), in assay [2] (Sa19 (MRSA)) and in assay [2] (Sa20 (MRSA)) was “S” each time. Moreover, the Antibiotic susceptibility entry in assay [2] (Sa21 (MRSA)), in assay [2] (Sa22 (MRSA)) and in assay [2] (Sa23 (MRSA)) was “S” throughout.

Turning to `CC[C@H]1OC(=O)[C@H](C)[C@@H](O[C@H]2C[C@@](C)(OC)[C@@H](O)[C@H](C)O2)[C@H](C)[C@@H](O[C@@H]2O[C@H](C)C[C@H](N(C)C)[C@H]2O)[C@](C)(O)C[C@@H](C)C(=O)[C@H](C)[C@@H](O)[C@]1(C)O` [ERY, erythromycin], the Antibiotic susceptibility entry is given as “I” in assay [3] (setting [9]); “S” in assay [3] (setting [10]); “S” in assay [1] (setting [4]); “R” in assay [1] (setting [5]); “R” in assay [1] (setting [6]); “R” in assay [1] (setting [7]). Also, the Antibiotic susceptibility result in assay [1] (setting [8]) is given as “R”; in the assay with Staphylococcus hominis (Sh1 (Staphylococcus hominis)) it was “R”; in the assay on Staphylococcus hominis (Sh2 (Staphylococcus hominis)), “S”; in the assay on Staphylococcus hominis (Sh3 (Staphylococcus hominis)) it was “R”; in assay [2] (S. aureus ATCC 25923), “S”; in assay [2] (S. aureus ATCC 29213), “S”. Besides, the Antibiotic susceptibility result in assay [2] (S. aureus ATCC BAA 976), in assay [2] (S. aureus ATCC BAA 977), in assay [2] (S. aureus ATCC BAA 1026), in assay [2] (Sa1 (MRSA)), in assay [2] (Sa2 (MRSA)) and in assay [2] (Sa3 (MRSA)) was “R” throughout. The Antibiotic susceptibility entry in assay [2] (Sa5 (MRSA)), in assay [2] (Sa6 (MRSA)), in assay [2] (Sa7 (MRSA)), in assay [2] (Sa8 (MRSA)), in assay [2] (Sa9 (MRSA)) and in assay [2] (Sa10 (MRSA)) was “R” each time. For the same molecule, the Antibiotic susceptibility result in assay [2] (Sa11 (MRSA)), in assay [2] (Sa12 (MRSA)), in assay [2] (Sa14 (MRSA)), in assay [2] (Sa15 (MRSA)), in assay [2] (Sa16 (MRSA)) and in assay [2] (Sa17 (MRSA)) was “R” in each case. Moreover, the Antibiotic susceptibility result in assay [2] (Sa18 (MRSA)), in assay [2] (Sa19 (MRSA)), in assay [2] (Sa20 (MRSA)), in assay [2] (Sa21 (MRSA)), in assay [2] (Sa22 (MRSA)) and in assay [2] (Sa23 (MRSA)) was “R” throughout.
